The record followed here is patent US20230167073A1 (Teijin Pharma Limited, priority 2020, published 2023).

For this test, the target named is T1, Human TRPC6 (Homo sapiens, UniProt Q9Y210).
T1 construct: expressed in transfected cells
T1 sequence (Q9Y210 1-931): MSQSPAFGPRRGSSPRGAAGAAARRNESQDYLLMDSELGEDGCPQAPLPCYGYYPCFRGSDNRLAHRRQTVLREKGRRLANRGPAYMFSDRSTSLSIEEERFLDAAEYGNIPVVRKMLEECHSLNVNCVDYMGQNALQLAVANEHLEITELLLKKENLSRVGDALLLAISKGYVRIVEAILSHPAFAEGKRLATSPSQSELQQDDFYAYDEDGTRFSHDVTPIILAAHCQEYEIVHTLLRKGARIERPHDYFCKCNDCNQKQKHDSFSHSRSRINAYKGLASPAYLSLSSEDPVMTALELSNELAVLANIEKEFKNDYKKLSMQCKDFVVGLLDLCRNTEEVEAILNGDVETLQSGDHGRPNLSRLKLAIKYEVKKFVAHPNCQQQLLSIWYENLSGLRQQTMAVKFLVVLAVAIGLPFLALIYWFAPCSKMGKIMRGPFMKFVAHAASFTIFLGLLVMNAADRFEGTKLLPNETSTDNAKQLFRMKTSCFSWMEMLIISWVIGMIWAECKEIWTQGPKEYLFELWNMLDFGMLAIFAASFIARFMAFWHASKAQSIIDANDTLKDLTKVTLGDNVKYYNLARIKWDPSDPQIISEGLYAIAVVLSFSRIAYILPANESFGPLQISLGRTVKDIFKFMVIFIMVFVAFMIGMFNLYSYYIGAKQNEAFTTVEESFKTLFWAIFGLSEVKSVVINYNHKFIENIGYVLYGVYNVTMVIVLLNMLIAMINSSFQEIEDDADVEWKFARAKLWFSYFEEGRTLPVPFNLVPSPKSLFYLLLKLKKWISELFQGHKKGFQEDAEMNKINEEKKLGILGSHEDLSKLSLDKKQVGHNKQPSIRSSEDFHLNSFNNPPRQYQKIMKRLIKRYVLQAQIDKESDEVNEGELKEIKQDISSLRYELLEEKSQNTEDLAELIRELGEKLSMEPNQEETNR
Kind of test: Evaluation of TRPC6 channel inhibitory activity (1), FLIPR Calcium 5 Assay Kit, OAG stimulation (Compound Nos. 1-1293). In kind it is cell-based. The conditions noted are these: Human TRPC6 stably-expressing cells, OAG 30 μM, FLIPR Calcium 5 Assay Kit; read-out: Inhibitory activity (pIC50 class) (converted). A digest of the protocol: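 The FLIPR signal is maximum fluorescence after 30 μM OAG minus minimum before compound, measured in a human TRPC6 stable line loaded with Calcium 5 dye. Compounds were preincubated 20 min. pIC50 came from four-parameter logistic fitting of inhibition rates and is given as symbol ranges.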
Consider `Cc1cc(Oc2cc(C#N)ccc2-c2ncc(CCN)cn2)cc(N2CC3CCC(C2)O3)n1` [compound 454, 4-[5-(2-aminoethyl)pyrimidin-2-yl]-3-[2-methyl-6-(8-oxa-3-azabicyclo[3.2.1]octan-3-yl)pyridin-4-yl]oxybenzonitrile], for which the IC50 is under 10 nM.

For the molecule `CN(c1cc(C#N)ccc1-c1ncc(CCN)cn1)c1cc(-c2ccccc2)nn1C` [Compound 6, 4-[5-(2-Aminoethyl)pyrimidin-2-yl]-3-[methyl-(2-methyl-5-phenylpyrazol-3-yl)amino]benzonitrile], the IC50 is under 10 nM.

For the molecule `N#Cc1ccc(-c2ccc(CN)cn2)c(C(=O)c2nnc(N3CCOCC3)o2)c1` [compound 1089, 4-[5-(aminomethyl)pyridin-2-yl]-3-(5-morpholin-4-yl-1,3,4-oxadiazole-2-carbonyl)benzonitrile], the IC50 is 10 to 1000 nM.

Take `Cc1nc(OCC(F)(F)F)cc(Oc2cc(C#N)ccc2-c2ccc(CCN)cc2)n1` [Compound 35, 4-[4-(2-aminoethyl)phenyl]-3-[2-methyl-6-(2,2,2-trifluoroethoxy)pyrimidin-4-yl]oxybenzonitrile]: the IC50 was 10 to 1000 nM.

Consider `Cc1cc(Oc2cc(C#N)ccc2-c2ncc([C@H](O)CN)cn2)cc(N2CCCCC2)n1` [compound 501, 4-[5-[(1S)-2-amino-1-hydroxyethyl]pyrimidin-2-yl]-3-(2-methyl-6-piperidin-1-ylpyridin-4-yl)oxybenzonitrile], for which the IC50 is under 10 nM.

Take `COCCOC(CN)c1ccc(-c2ccc(C#N)cc2Oc2cc(N3CCOCC3)nc(C)n2)cc1` (centres unmarked) [Compound 64, 4-[4-[2-amino-1-(2-methoxyethoxy)ethyl]phenyl]-3-(2-methyl-6-morpholin-4-ylpyrimidin-4-yl)oxybenzonitrile]: the IC50 was over 1000 nM.

`CCCc1cc(Oc2cc(C#N)ccc2-c2ccc(CN)cn2)n(C)n1` [compound 361, 4-[5-(aminomethyl)pyridin-2-yl]-3-(2-methyl-5-propylpyrazol-3-yl)oxybenzonitrile]: the IC50 was under 10 nM.

For `CCN(CC(F)F)c1cc(C(=O)c2cc(C#N)ccc2-c2ncc(CN)cn2)n(C)n1` [compound 1074, 4-[5-(aminomethyl)pyrimidin-2-yl]-3-[5-[2,2-difluoroethyl(ethyl)amino]-2-methylpyrazole-3-carbonyl]benzonitrile], the IC50 is under 10 nM.

`Cc1nc(Oc2cc(C#N)ccc2-c2ccc(C(O)CN)c(Cl)c2)cc(N2CCOCC2)n1` (centres unmarked) [Compound 150, 4-[4-(2-amino-1-hydroxyethyl)-3-chlorophenyl]-3-(2-methyl-6-morpholin-4-ylpyrimidin-4-yl)oxybenzonitrile]: the IC50 was under 10 nM.

Regarding `Cn1nc(-c2ccc(F)cn2)cc1Oc1cc(C#N)ccc1-c1ncc(CN)cn1` [compound 651, 4-[5-(aminomethyl)pyrimidin-2-yl]-3-[5-(5-fluoropyridin-2-yl)-2-methylpyrazol-3-yl]oxybenzonitrile], the IC50 is under 10 nM.

Consider `Cn1nc(C2CCOC2)cc1Oc1cc(C#N)ccc1-c1ncc(CCN)cn1` (centres unmarked) [compound 495, 4-[5-(2-aminoethyl)pyrimidin-2-yl]-3-[2-methyl-5-(oxolan-3-yl)pyrazol-3-yl]oxybenzonitrile], for which the IC50 is 10 to 1000 nM.

As to `Cc1nn(-c2ccccn2)cc1Oc1cc(F)ccc1-c1ncc(CCN)cn1` [compound 969, 2-[2-[4-fluoro-2-(3-methyl-1-pyridin-2-ylpyrazol-4-yl)oxyphenyl]pyrimidin-5-yl]ethanamine], the IC50 was under 10 nM.

In the case of `N#Cc1ccc(-c2ncc(CCN)cn2)c(Oc2cncc(N3CCOCC3)c2)c1` [compound 917, 4-[5-(2-aminoethyl)pyrimidin-2-yl]-3-(5-morpholin-4-ylpyridin-3-yl)oxybenzonitrile], the IC50 is 10 to 1000 nM.

For `Cc1nc(CN2CCC(C(F)(F)F)CC2)cn1Cc1cc(C#N)ccc1-c1ncc(CCN)cn1` [compound 1180, 4-[5-(2-aminoethyl)pyrimidin-2-yl]-3-[[2-methyl-4-[[4-(trifluoromethyl)piperidin-1-yl]methyl]imidazol-1-yl]methyl]benzonitrile], the IC50 is over 1000 nM.

For the molecule `Cn1nc(-c2ccccc2)cc1Oc1cc(C#N)ncc1-c1ccc(CCN)cn1` [Compound No. 1277, 5-[5-(2-Aminoethyl)pyridin-2-yl]-4-(2-methyl-5-phenylpyrazol-3-yl)oxypyridine-2-carbonitrile], the IC50 was 10 to 1000 nM.

For the molecule `Cn1nc(N2CCCCC2)cc1Cc1cc(C#N)ccc1-c1ccc(CCN)cn1` [compound 1219, 4-[5-(2-aminoethyl)pyridin-2-yl]-3-[(2-methyl-5-piperidin-1-ylpyrazol-3-yl)methyl]benzonitrile], the IC50 was under 10 nM.

Take `Cn1nc(-c2ccccn2)cc1Oc1cc(C#N)ccc1-c1ccc(CN)cn1` [compound 609, 4-[5-(aminomethyl)pyridin-2-yl]-3-(2-methyl-5-pyridin-2-ylpyrazol-3-yl)oxybenzonitrile]: the IC50 was under 10 nM.

For the molecule `Cc1nc(Oc2cc(C#N)ccc2-n2cc([C@@H](O)CN)cn2)cc(-c2ccccc2C(F)(F)F)n1` [compound 351, 4-[4-[(1R)-2-amino-1-hydroxyethyl]pyrazol-1-yl]-3-[2-methyl-6-[2-(trifluoromethyl)phenyl]pyrimidin-4-yl]oxybenzonitrile], the IC50 is 10 to 1000 nM.

`Cn1nc(C2CC2)cc1Oc1cc(C#N)ccc1-c1nccc(CN)n1` [compound 680, 4-[4-(aminomethyl)pyrimidin-2-yl]-3-(5-cyclopropyl-2-methylpyrazol-3-yl)oxybenzonitrile]: the IC50 was over 1000 nM.

For `CCN(CC)c1cc(Oc2cc(C#N)ccc2-c2ncc([C@@H](F)CN)cn2)n(C)n1` [compound 914, 4-[5-[(1R)-2-amino-1-fluoroethyl]pyrimidin-2-yl]-3-[5-(diethylamino)-2-methylpyrazol-3-yl]oxybenzonitrile], the IC50 is under 10 nM.

As to `CN(CC(F)(F)F)c1cc(Oc2cc(C#N)ccc2-c2ncc(CCN)cn2)n(C)n1` [compound 787, 4-[5-(2-aminoethyl)pyrimidin-2-yl]-3-[2-methyl-5-[methyl(2,2,2-trifluoroethyl)amino]pyrazol-3-yl]oxybenzonitrile], the IC50 was under 10 nM.

As to `Cn1nc(C2CC2)cc1Oc1cc(C#N)ccc1-c1cc(C(=O)N2CCC[C@@H](N)C2)ccn1` [compound 554, 4-[4-[(3R)-3-aminopiperidine-1-carbonyl]pyridin-2-yl]-3-(5-cyclopropyl-2-methylpyrazol-3-yl)oxybenzonitrile], the IC50 is over 1000 nM.

Consider `CC(C)c1cc(Oc2cc(C#N)ccc2-c2ncc(CCN)cn2)n(C)n1` [Compound 261, 4-[5-(2-Aminoethyl)pyrimidin-2-yl]-3-(2-methyl-5-propan-2-ylpyrazol-3-yl)oxybenzonitrile], for which the IC50 was under 10 nM.

As to `Cc1cc(Oc2cc(C#N)ccc2-c2ncc(CNC(C)(C)C)cn2)cc(N2CCOCC2)n1` [compound 661, 4-[5-[(tert-butylamino)methyl]pyrimidin-2-yl]-3-(2-methyl-6-morpholin-4-ylpyridin-4-yl)oxybenzonitrile], the IC50 is over 1000 nM.

As for `Cn1nc(-c2ccccn2)cc1Oc1cc(C#N)cnc1-c1ccc(CN)cn1` [Compound No. 1289, 6-[5-(Aminomethyl)pyridin-2-yl]-5-(2-methyl-5-pyridin-2-ylpyrazol-3-yl)oxypyridine-3-carbonitrile], the IC50 is over 1000 nM.

For the molecule `Cn1nc(-c2cccnc2)cc1Oc1cc(C#N)ccc1-c1ccc(C(O)CN)cc1` (centres unmarked) [Compound 177, 4-[4-(2-amino-1-hydroxyethyl)phenyl]-3-(2-methyl-5-pyridin-3-ylpyrazol-3-yl)oxybenzonitrile], the IC50 was under 10 nM.

`Cc1nc(NCC2CCOCC2)cc(Oc2cc(C#N)ccc2-c2ncc(CN)cn2)n1` [compound 636, 4-[5-(aminomethyl)pyrimidin-2-yl]-3-[2-methyl-6-(oxan-4-ylmethylamino)pyrimidin-4-yl]oxybenzonitrile]: the IC50 is over 1000 nM.

In the case of `N#Cc1ccc(-c2ccc(CCN)cn2)c(Cn2cnc(-c3ccccc3)c2)c1` [Compound No. 1131, 4-[5-(2-Aminoethyl)pyridin-2-yl]-3-[(4-phenylimidazol-1-yl)methyl]benzonitrile], the IC50 is under 10 nM.

Consider `Cc1nc(Oc2cc(C#N)ccc2-c2ccc(CCNCCC(=O)O)cc2)cc(N2CCOCC2)n1` [Compound 56, 3-[2-[4-[4-cyano-2-(2-methyl-6-morpholin-4-ylpyrimidin-4-yl)oxyphenyl]phenyl]ethylamino] propanoic acid], for which the IC50 was over 1000 nM.
